One assay has as its system MOLT-3 Lymphoma. Put plainly: MTT assay, antiproliferative activity against MOLT-3. The format is cell-based. The conditions noted are these: Homo sapiens, 24–36 hours drug exposure, 1.0 to 250 μM. From the text: (§1) The following human cancer cell lines were used in the present study: human leukemic cell lines Molt-3 and NALM-6. These cell lines were obtained from American Type Culture Collection (Manassas, Va.) and maintained as continuous cell lines in Dulbecco's modified Eagles's medium supplemented with 10% fetal bovine serum and antibiotics.
(§2) The antiproliferative activity of the COBRA compounds was examined against a panel of 2 different human tumor cell lines using standard MTT (3-[4,5-dimethylthiazol-2-yl]-2,5-diphenyl tetrazolium bromide) assays (Narla, R. K., Liu, X. P., Klis, D. and Uckun, F. M., Clin. Cancer Res., 1998, 4, 2463), (Boehringer Mannheim Corp., Indianapolis, Ind.). Briefly, exponentially growing brain tumor cells were seeded into a 96-well plate at a density of 2.5×10^4 cells/well and incubated for 36 hours at 37° C. prior to drug exposure. On the day of treatment, culture medium was carefully aspirated from the wells and replaced with fresh medium containing the test compounds at concentrations ranging from 1.0 to 250 μM. Triplicate wells were used for each treatment. The cells were incubated with the various compounds for 24–36 hours at 37° C. in a humidified 5% CO2 atmosphere. To each well, 10 μl of MTT (0.5 mg/ml final concentration) was added and the plates were incubated at 37° C. for 4 hours to allow MTT to form formazan crystals by reacting with metabolically active cells. The formazan crystals were solubilized overnight at 37° C. in a solution containing 10% SDS in 0.01 M HCl. The absorbence of each well was measured in a microplate reader (Labsystems) at 540 nm and a reference wavelength of 690 nm. To translate the OD 540 values into the number of live cells in each well, the OD 540 values were compared to those on standard OD 540—versus—cell number curves generated for each cell line. The percent survival was calculated using the formula: survival=Live cell number[test]×100/Live cell number [control].
(§3) IC50 values were calculated by non-linear regression analysis using an Graphpad Prism software version 2.0 (Graphpad Software, Inc., San Diego, Calif.).
Background: Formazan colour is commonly taken as a measure of viable cells.

In a further assay the test system is NALM-6 Leukemia. Put plainly: MTT assay, antiproliferative activity against NALM-6. It is filed as cell-based. Particulars: Homo sapiens, 24–36 hours drug exposure, 1.0 to 250 μM.
Excerpt: as §1, §2, §3

The structures appear in SMILES notation. Where only a bound is given, the exact number is not on record here.

For the compound `CCCCCCCCCCCCC(O)c1ccco1` (centres unmarked) [AC-6], the 50% inhibitory concentration (IC50) is over 250 µM with MOLT-3 Lymphoma and 229 µM in the assay with NALM-6 Leukemia.
Taken in the same sequence, the figures for `CCCCCCCCCCCCC(O)c1ccc(-c2ccccc2Cl)o1` (centres unmarked) [AC-7] were over 250 µM and over 250 µM.
The matching figures for `CCCCCCCCCCCCC(O)c1cccs1` (centres unmarked) [AC-10]: 125 µM and 204 µM.
The matching figures for `CCCCCCCCCCCCC(O)c1ccc(Br)s1` (centres unmarked) [AC-11]: 2 µM and 4 µM.
Take `CCCCCCCCCCCCC(O)c1ccc(C=O)s1` (centres unmarked) [AC-12]: the half-maximal inhibitory concentration (IC50) in the assay on MOLT-3 Lymphoma is 33 µM; with NALM-6 Leukemia, 6 µM.
Taken in the same sequence, the figures for `CCCCCCCCCCCCC(O)c1nccs1` (centres unmarked) [AC-13] were 4 µM and over 250 µM.
Taken in the same sequence, the figures for `CCCCCCCCCCCCC(O)c1ncc[nH]1` (centres unmarked) [AC-14] were 58 µM and 3 µM.
On to `CCCCCCCCCCCCC(O)c1[nH]cnc1C` (centres unmarked) [AC-15], for which the results for the IC50 in the assay with MOLT-3 Lymphoma and in the assay with NALM-6 Leukemia were 9 µM and 25 µM, respectively.
Regarding `CCCCCCCCCCCCC(O)c1cccc(C)n1` (centres unmarked) [AC-16], the results for the IC50 with MOLT-3 Lymphoma and with NALM-6 Leukemia were over 250 µM and 236 µM, respectively.
The matching figures for `CCCCCCCCCCCCC(O)c1ccccn1` (centres unmarked) [AC-17]: 246 µM and 221 µM.

What is called IC50 is the point on the concentration scale where inhibition reaches its midpoint. Read a high IC50 as a need for much substance.

Values taken from patent US7037937B2, “Cytotoxic compounds” (Parker Hughes Institute, priority 2001, dated 2006).
